Assay results: patent US8034388B2, “Anthocyanin-rich compositions and methods for inhibiting cancer cell growth” (The University of Maryland, priority 2003, dated 2011)

How the values were obtained:
[1] = system: HCT-15 cells derived from human colon carcinoma; settings: Kamei and coworkers (1995); cited from earlier work
HT-29 colon cancer cells = assay: Cell proliferation of HT-29 cells (hemacytometer count, Trypan blue exclusion); assay type: cell-based, human; settings: HT-29 carcinoma cells, pure anthocyanin
Description: Cell Culture—Human HT-29 colon cancer cells (ATCC, HTB 38) were grown in McCoy's 5A medium (BioWhitaker Inc., Walkersville, Md.), and normal colon epithelial cells, NCM460 (INCELL Corp. LLC, Austin, Tex.) were grown in 25% conditioned M3:10 medium (INCELL Corp., LLC). Media were supplemented with 10% fetal bovine serum (FBS) and 1× antibiotic-antimycotic (Invitrogen Corporation, Carlsbad, Calif.), and cells were maintained in a humidified atmosphere of 95% air/5% CO2 at 37° C. […] Cell Proliferation—Freshly trypsinized cells were seeded in 25-cm^2 (1×10^6 cells) or 75-cm^2 (2×10^6 cells) flasks in duplicate. The cells were grown for 24 h under normal growth conditions prior to treatment with chokeberry ARE. Freshly prepared ARE was added in concentrations ranging from 10 to 200 μg monomeric anthocyanin/ml medium. A vehicle control contained acidified water and was added at the same volume as ARE added to treated cells. […] Prior to exposure to ARE for 24 h, 48 h or 72 h treatments, the medium was replaced with fresh medium (10% FBS) containing either vehicle control (acidified water) or ARE. For each time point, the cells were trypsinized and centrifuged at 400 g for 10 min at room temperature. Aliquots of cells were counted using a hemacytometer and viability measured using Trypan blue dye exclusion.

For `Oc1cc(O)c2cc(O)c(-c3cc(O)c(O)c(O)c3)[o+]c2c1` [delphinidin, Delphinidin], the “dose for 50% cell growth suppression” value [1] is listed as 0.5 µg/mL.
For `Oc1ccc(-c2[o+]c3cc(O)cc(O)c3cc2O)cc1` [pelargonidin, Pelargonidin], the “dose for 50% cell growth suppression” value [1] is given as 5 µg/mL.
For `Oc1cc(O)c2cc(O)c(-c3ccc(O)c(O)c3)[o+]c2c1` [cyanidin, Cyanidin], the “dose for 50% cell growth suppression” value [1] is listed as 2 µg/mL.
With `OC[C@H]1O[C@@H](Oc2cc3c(O)cc(O)cc3[o+]c2-c2ccc(O)c(O)c2)[C@H](O)[C@@H](O)[C@H]1O` [cyanidin-3-galactoside] the “cancerous colonic cell growth (visual observations of cell growth and viability)” value (HT-29 colon cancer cells) was “notably inhibited”.
